What all share (details): in vivo
One data set deals with Rattus norvegicus. The data set can be described thus: Dose normalized AUC in Sprague-Dawley rat at 2 mg/kg, po. It is filed as ADME, organism-based.
The nature of data set [1]: Half life of compound in Sprague-Dawley rat at 1 mg/kg, iv and 2 mg/kg, po. It counts as ADME, organism-based.
Data set [2] is described as follows: Half life of compound in beagle dog at 0.5 mg/kg, iv. It is filed as ADME, organism-based, Canis lupus familiaris.
The nature of data set [3]: Oral bioavailability in rhesus monkey at […]. It counts as ADME, organism-based, Macaca mulatta.
Data set [4] is described as follows: Oral bioavailability in Sprague-Dawley rat at 2 mg/kg. It counts as ADME, organism-based.
Another data set relates to Canis familiaris. The data set can be described thus: fCmax in vagotomized beagle dog at 10 mg/kg, iv administered as cumulative dose. It counts as ADME, organism-based, Canis lupus familiaris.
Data set [5] is described as follows: Half life of compound in rhesus monkey at 0.25 mg/kg, iv and 0.5 mg/kg, po. It is filed as ADME, organism-based, Macaca mulatta.
In the next data set the test system is Rhesus monkey. The data set can be described thus: Dose normalized AUC in rhesus monkey at 0.5 mg/kg, po. It is filed as ADME, organism-based, Macaca mulatta.

A value given as a limit tells only on which side of the number the result lay.

In general, half-life refers to how long it takes for the measured level to halve. The compound `O=C1OCc2cc(CCN3CCN(C(=O)Cc4ccc(-n5cnnn5)cc4)CC3)ccc21` yielded an AUC/dose in the data set on Rattus norvegicus of 0.067 µM·kg·h/mg. In data set [1], this compound showed a half-life of 9.6 min.

A word on the bioavailability: it is the share of a dose that reaches the circulation, judged against a reference dose that is usually intravenous. With `Cc1c(CCN2CCN(C(=O)Cc3ccc(-n4cnnn4)nc3)CC2)ccc2c1COC2=O`, the half-life in data set [2] is 78 min; in data set [1], 26.4 min; in data set [5], 66 min. Besides, the bioavailability in data set [3] is < 1%; in data set [4], 38%. The results for the AUC/dose with Rattus norvegicus and with Rhesus monkey were 0.84 µM·kg·h/mg and 0.001 µM·kg·h/mg, respectively. The fCmax in the data set with Canis familiaris is 21 µM.

Compound `Cc1cc(-n2cnnn2)cnc1CC(=O)N1CCN(CCc2ccc3c(c2C)COC3=O)CC1` registered a bioavailability in data set [4] of 18%. The same compound displayed an AUC/dose in the data set with Rattus norvegicus of 0.35 µM·kg·h/mg. In data set [1], this compound gave a half-life of 19.8 min.

The compound `Cc1c(C(F)CN2CCN(C(=O)Cc3ccc(-n4cnnn4)nc3)CC2)ccc2c1COC2=O` (racemic) displayed a bioavailability in data set [4] of 46%. In the data set on Rattus norvegicus, this compound displayed an AUC/dose of 0.31 µM·kg·h/mg. In addition, the half-life in data set [1] is 21 min.

In data set [4], `Cc1c(C(C)CN2CCN(C(=O)Cc3ccc(-n4cnnn4)nc3)CC2)ccc2c1COC2=O` (racemic) returned a bioavailability of 25%. Further, the AUC/dose in the data set with Rattus norvegicus was 0.45 µM·kg·h/mg. In data set [1], this compound had a half-life of 57.6 min.

These data come from ChEMBL document CHEMBL3792353, “Differentiation of ROMK potency from hERG potency in the phenacetyl piperazine series through heterocycle incorporation” (Bioorg Med Chem Lett, 2016).
